Measured values published in patent US20250059520A1, “SGK1 INHIBITORY COMPOSITIONS AND METHODS” (Arizona Board of Regents on Behalf of the University of …, priority 2021, published 2025).
Ends that are not written are not given here.

Experiments:
[1] = tested on: neonatal rat ventricular myocytes (NRVMs); assay: PE-mediated ANP expression, growth and SGK1 degradation in NRVM with ectopic expression of the SGK1 peptide; assay type: cell-based; conditions: NRVM ± AdV-SGK1 peptide
Text: (§1) FIGS. 11A to 11C show SGK1(122-157) Interrupts SGK1/GILZ Interaction and Decreases Cardiac Myocyte Growth. FIG. 11A illustrates how a small SGK1-related peptide could disrupt SGK1-GILZ interaction, increase SGK1 degradation and reduce cardiac myocyte growth. […] NRVM were infected with AdV-Con or FLAG-SGK-(122-157). […] FLAG IP efficiently pulled down the FLAG-SGK peptide (5, 6) as well as GILZ (7, 8).
SGK1 and GILZ were shown herein to be increased in pathological hypertrophic human and mouse hearts. In mice, SGK1 degradation was slowed during pressure overload. Cardiac-specific deletion of SGK1 in mice decreased pressure overload-induced hypertrophy, whereas overexpression of SGK1 increased it. Removing the SGK1 ER-targeting sequence, or overexpressing GILZ decreased SGK1 degradation in neonatal rat ventricular myocytes (NRVMs) and increased growth; GILZ knockdown decreased growth. A 35 amino acid region in SGK1 that interacts with GILZ was identified; ectopic expression of this peptide increased SGK1 degradation and decreased NRVM growth.
(§2) Thus, it is anticipated that AAV9-FLAG-SGK1-(Pep) can increase SGK1 degradation and, thus, blunt pressure overload-induced pathological cardiac hypertrophy and subsequent heart failure in mice, in vivo.

[2] = target: T1, GILZ (Rattus norvegicus, UniProt Q9EQZ1); assay: FLAG immunoprecipitation of GILZ from NRVM infected with AdV-FLAG-SGK1(122-157); assay type: binding
T1 construct: FLAG IP efficiently pulled down the FLAG-SGK peptide (5, 6) as well as GILZ (7, 8); endogenous in cells; host or cells: NRVM (neonatal rat ventricular myocytes) infected with AdV-Con or AdV-FLAG-SGK1(122-157)
T1 sequence (Q9EQZ1 1-134): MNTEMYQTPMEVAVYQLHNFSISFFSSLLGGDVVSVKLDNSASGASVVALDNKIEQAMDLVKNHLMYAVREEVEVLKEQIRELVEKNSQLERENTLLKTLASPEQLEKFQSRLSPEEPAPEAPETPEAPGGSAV
Text: as §1, §2

[3] = tested on: adult mouse ventricular fibroblasts (AMVF); assay: TGFβ-mediated induction of fibrosis and inflammasome marker mRNAs in AMVF (qRT-PCR); assay type: cell-based; conditions: 48 h
Method: FIGS. 13A to 13C show effects of TAT-SGK1-(Pep) in AMVFs: TAT-SGK1-(Pep) [P] added to AMVFs at the conc shown±TGFβ. 48 h later cultures analyzed for α-SMA (FIG. 13A), periostin (FIG. 13B), IL1b (FIG. 13C) mRNAs shown by qRT-PCR. n=3 cultures/treatment*$ p<0.05 different from all other values (ANOVA).
(§3) TAT-SGK1-(Pep) inhibits myocyte growth and fibroblast activation: Next, a SGK1-(Pep) peptide was designed and synthesized with an N-terminal TAT sequence to facilitate its direct delivery to cultured cells, and potentially to mice. To test its effectiveness, isolated adult mouse ventricular myocytes (AMVMs) were treated with either vehicle or a FITC-labeled form of the peptide, then imaged to show uptake (FIG. 12A). […] Thus, the TAT-SGK1-(Pep) affects AMVM growth as anticipated. […] Finally, since TGFβ-stimulated SGK1 has been implicated in fibrosis (Artunc F and Lang F. Nephron Physiol. 2014 128:35-9), a major maladaptive aspect of pressure overload cardiac pathology, the effects of the TAT-SGK1-(Pep) on TGFβ-mediated induction of two markers of fibrosis, α-smooth muscle actin (α-SMA) and periostin, was examined in adult mouse ventricular fibroblasts (AMVF). […] These findings underscore the SGK1-specificity of the peptide, as well as the possibility that some of the adaptive effects of the peptide could include dampening inflammasome activation and decreasing fibrosis.

[4] = tested on: isolated adult mouse ventricular myocytes (AMVMs); assay: Uptake, hypertrophic growth and ANP mRNA in AMVMs treated ± PE for 24 h; assay type: cell-based; conditions: AMVMs ± PE 24 h, several peptide doses
Method: FIGS. 12A to 12E show TAT-SGK1-(Pep) Stops Growth of Myocytes.
as §3

[5] = tested on: TAC-induced heart failure with reduced ejection fraction; assay: Heart failure induced by transaortic constriction (TAC) in mice, echocardiography; assay type: in vivo, mouse
Text: Animals were randomly assigned to cohorts and a five-digit identifier number.
FIGS. 18A to 18D show LV mass (FIG. 18A), ejection fraction (FIG. 18B), cardiac stiffening (E/e′) (FIG. 18C), and A wave (FIG. 18D) in mice treated with control peptide, SGK1 peptide, or delayed treatment of SGK1 peptide. The mice were 4-weeks into a 6-week heart failure paradigm induced by transaortic constriction (TAC), a gold standard preclinical model of heart failure with reduced ejection fraction. […] Consistent pressure gradients to confirm standardized severity of the TAC procedure across cohorts is performed 1-week post-TAC via carotid flow Doppler ratios of the inominate to left common carotids.

[6] = tested on: endogenous SGK1; assay: Rate of endogenous SGK1 degradation in AMVM; assay type: cell-based, mouse
[7] = tested on: endogenous SGK1; assay: Rate of endogenous SGK1 degradation in NRVM; assay type: cell-based, rat; conditions: degradation dependent on Hrd1
[8] = chronic administration, 4 weeks into 6-week TAC paradigm

Sequence | PE-mediated ANP expression (ANP mRNA) [1] | binding to GILZ in IP experiments [2] | TGFβ-mediated induction of periostin mRNA [3] | TGFβ-mediated induction of α-smooth muscle actin (α-SMA) mRNA [3] | mRNA for IL1β, marker of inflammasome activation [3] | ANP mRNA [4] | cardiac myocyte remodeling (hypertrophic growth, width to length ratio) [4] | TAC-induced left ventricular hypertrophy (LV Mass) [5, 8] | diastolic dysfunction and cardiac stiffening (E/e′) [5, 8] | early indicator of congestion (mitral atrial flow velocity, A wave) [5, 8] | systolic dysfunction (ejection fraction) [5, 8] | toxic effects [5, 8] | cardiac dysfunction and remodeling ([5]; delayed administration starting at 2-weeks post-TAC) | endogenous SGK1 degradation [6] | endogenous SGK1 degradation [7]
VFYAVKVLQKKAILKKKEEKHIMSERNVLLKNVKHP (not fully specified) [SGK1-(Pep), FLAG-tagged amino acids 122-157 of SGK1, ectopically expressed from an adenovirus (AdV)] | blunted PE-mediated ANP expression | could bind to GILZ | – | – | – | – | – | – | – | – | – | – | – | – | –
GRKKRRQRRRPQVFYAVKVLQKKAILKKKEEKHIMSERNVLLKNVKHP [TAT-SGK1-(Pep)] | – | – | effectively inhibited induction | effectively inhibited induction | inhibited | dose-dependent decrease | dose-dependent decrease | conferring protection | conferring protection | conferring protection | conferring protection | no signs of untoward toxic effects | shows signs of cardioprotection and reversal of early cardiac dysfunction and remodeling | accelerate endogenous SGK1 degradation | accelerate endogenous SGK1 degradation
